Counter-ions that a name gives are not always drawn.
Key:
[1] = test system: Carrageenan-Induced Edema in Rat Paws; test: Carrageenan-induced edema in rat paws (anti-inflammatory effect); format: in vivo; conditions: 3 h, oral, carrageenan injected one hour after dosing, swelling measured at third hour of carrageenan injection, read-out: % Inhibition of Paw Edema
Experimental: For example, in a laboratory experiment, one hour after oral administration with these compounds, the rats were subcutaneously injected with 0.1 ml of 1% carrageenan suspension on the plantar surface of the right hind paw. The swelling was measured at the third hour of carrageenan injection. Anti-inflammatory effect of the compounds was determined as percentage inhibition of the swelling, taking the swelling in the control groups as 100%.

[2] = test system: acetic acid stretching in mice; test: Acetic acid stretching method (analgesic effect in mice); format: in vivo; conditions: male mice, oral, 0.6% acetic acid i.p. 30 minutes later, counted for 10 minutes from 5 minutes after injection
Experimental: Male mice were given orally with these compounds and 30 minutes later injected intraperitoneally with 0.1 ml/10 g of 0.6% acetic acid. The number of stretching was countered for 10 minutes from 5 minutes after injection of acetic acid. The value was expressed in the percentage of control.

[3] = test system: pain threshold of inflamed foot (beer yeast) in rats; test: Randall-Selitto method (analgesic effect in rat); format: in vivo; conditions: male rats, oral, 2 hours after 20% beer yeast into subplantar area
Experimental: Male rats were administered orally with 2-propionyl-4-tert-butyl-6-aminomethylphenol hydrochloride 2 hours after injection of 0.1 ml of 20% suspension beer yeast into subplantar area of one hind paw. Pain threshold determination was made on the normal and inflamed foot, using apparatus similar to that described by Randall-Selitto. Pain threshold change was expressed as percentage of control.

ulcer in rats = test: Sign of ulcer upon oral administration in rats; format: in vivo, rat; conditions: 200 mg/kg

SMILES | inhibition in vivo at 30 mg/kg [1] | other results
CC(=O)c1c(O)c(CN)cc2c1CCCC2 [1-Acetyl-3-aminomethyl-5,6,7,8-tetrahydro-2-naphthol hydrochloride] | 55.3% | 
CC(=O)c1cc2c(c(CN)c1O)CCCC2C (centres unmarked) [1-Aminomethyl-3-acetyl-5-methyl-5,6,7,8-tetrahydro-2-naphthol hydrochloride] | 66.3% | 
CCC(=O)c1c(O)c(CN)cc2c1CCCC2 [1-Propionyl-3-aminomethyl-5,6,7,8-tetrahydro-2-naphthol hydrochloride] | 37.4% | 
CSCCC(=O)c1cc(C(C)(C)C)cc(CN)c1O [2-(3-Methylthiopropionyl)-4-tert-butyl-6-aminomethylphenol hydrochloride] | 29.3% | 
CC(C)(C)c1cc(CN)c(O)c(C(=O)c2ccc(Br)cc2)c1 [2-(4-Bromobenzoyl)-4-tert-butyl-6-aminomethylphenol hydrochloride] | 35% | 
CC(=O)c1cc(C(C)(C)C)cc(CN)c1O [2-Acetyl-4-tert-butyl-6-aminomethylphenol hydrochloride] | 46.7% | 
CC(C)(C)c1cc(CN)c(O)c(C(=O)c2ccccc2)c1 [2-Benzoyl-4-tert-butyl-6-aminomethylphenol hydrochloride] | 47.6% | 
CCCC(=O)c1cc(C(C)(C)C)cc(CN)c1O [2-Butyryl-4-tert-butyl-6-aminomethylphenol hydrochloride] | 34.1% | 
CC(C)(C)c1cc(CN)c(O)c(C(=O)CCl)c1 [2-Chloroacetyl-4-tert-butyl-6-aminomethylphenol hydrochloride] | 59.2% | 
CC(C)(C)c1cc(CN)c(O)c(C(=O)C2CCCCC2)c1 [2-Cyclohexylcarbonyl-4-tert-butyl-6-aminomethylphenol hydrochloride] | 27.1% | 
CC(C)C(=O)c1cc(C(C)(C)C)cc(CN)c1O.Cl [2-Isobutyryl-4-tert-butyl-6-aminomethylphenol hydrochloride] | 55.5% | % Inhibition (acetic acid stretching) ([2]; 50 mg/kg): 49.7%
CC(C)(C)c1cc(CN)c(O)c(C(=O)Cc2ccccc2)c1 [2-Phenylacetyl-4-tert-butyl-6-aminomethylphenolhydrochloride] | 20.3% | 
CCC(=O)c1cc(C(C)(C)C)cc(CN)c1O.Cl [2-Propionyl-4-tert-butyl-6-aminomethylphenol hydrochloride] | 72.8% | % Inhibition (Randall-Selitto pain threshold change) ([3]; 50 mg/kg): 70%; % Inhibition (Randall-Selitto pain threshold change) ([3]; 100 mg/kg): 113%; sign of ulcer (ulcer in rats): did not show any sign of ulcer; % Inhibition (acetic acid stretching) ([2]; 10 mg/kg): 35.3%; % Inhibition (acetic acid stretching) ([2]; 20 mg/kg): 61.3%; % Inhibition (acetic acid stretching) ([2]; 50 mg/kg): 85.3%

— US4245099A, “2-Acyl-6-aminomethylphenol derivatives” (Ono Pharmaceutical Co., Ltd., priority 1978, dated 1981)
